Data set [1] deals with endothelial cells. In words: Toxicity to endothelial cells when AGE stimulated. Type of data set: cell-based, human. Here is the method:
Human aortic endothelial cells (HAEC, Clonetics) were cultured according to manufacturer in growth medium (Clonetics): basal medium containing human epidermal growth factor, hydrocortisone, vascular endothelial growth factor, heparin binding growth factor-B, long R3-insulin-like growth factor-1, ascorbic acid, gentamicin/amphotericin and 5% FBS. These cell were allowed to reach at least 90% confluency before subjected to experimental treatments. […] Tumor necrosis factor α was from R&D Systems.
All treatments, compound-added and controls were carried out in serum free media containing 0.2% albumin. Media from all conditions were collected and used for IL-6 ELISA.

Data set [2] deals with IL-6. The experiment in a line: TNF-α-induced IL-6 production determined by IL-6 ELISA in HAEC. It is filed as cell-based, human. The conditions noted are these: for activity at 5 µM / activity at 10 µM: Homo sapiens, 24 h.
Data set [3] concerns Human aortic smooth muscle cells. The experiment in a line: Smooth muscle cell proliferation assay (anti-proliferation assay, perlecan). It is filed as cell-based. The note with it: Homo sapiens, anti-proliferation assay (perlecan).
Method: Human aortic smooth muscle cells (Clonetics) were used. Cells were grown in basal medium containing 5% fetal bovine serum supplemented with growth factors, basic fibroblast growth factor, epidermal growth factor and insulin. […] The cells were then serum starved for 24 h to induce quiescence. Fresh growth medium containing no compound or 10 μM compound was then added and further incubated for 24 h. Cell number was determined by using a cell proliferation assay kit (Celltiter96 AQueous from Promega).
The subject of data set [4] is HAEC. In words: Toxicity to endothelial cells (HAEC) when TNF stimulated. Type of data set: cell-based. Here is the method:
Human aortic endothelial cells (HAEC, Clonetics) were cultured according to manufacturer in growth medium (Clonetics): basal medium containing human epidermal growth factor, hydrocortisone, vascular endothelial growth factor, heparin binding growth factor-B, long R3-insulin-like growth factor-1, ascorbic acid, gentamicin/amphotericin and 5% FBS. These cell were allowed to reach at least 90% confluency before subjected to experimental treatments. Glycated human serum albumin (G-HSA) was from US Biologicals. Tumor necrosis factor α was from R&D Systems.
[…] All treatments, compound-added and controls were carried out in serum free media containing 0.2% albumin. Media from all conditions were collected and used for IL-6 ELISA.

Data set [5] concerns heparanase. In words: Induction and measurement of endothelial heparanase protein (TNF-induced heparanase secretion). It is filed as cell-based, human. The conditions noted are these: for Relative Activity: inhibition of TNF-induced heparanase secretion, scale at 5 uM compound concentration; for inhibition at 5 µM / inhibition at 10 µM: Homo sapiens. Here is the method: Experiments were carried out on human microvascular endothelial cells (HMVEC) grown in 48-well plates (˜90% confluency). To induce heparanase activity, culture media was replaced with 200 μl Dulbecco's Modified Eagle's medium (DMEM) complemented with 1% bovine serum albumin (BSA) and with or without stimulants (5 ng/ml TGF-alpha, 1 ng/ml IL 1alpha, 200 ng/ml VEGF or other stimulants, cytokines, or inducers as required). The secreted proteins were analyzed by SDS/PAGE and heparanase protein was detected by immunoblotting using polyclonal anti-human heparanase antibody. The changes of heparanase expression determined by densitometric analysis. The induction and measurement of endothelial heparanase protein reported in the Tables herein were carried out according to this Example.

Data set [6] relates to IL-6. In words: AGE (G-HSA)-induced inflammatory response determined by IL-6 ELISA in HAEC. Type of data set: cell-based, human. The note with it: for IC50: IL6, unit inferred, read-out: IC50 (AGE stimulation of IL6); for activity at 10 µM: 24 h, IL6, read-out: % IL6 production compare to AGE stimulation of IL6 (100%). Summed up:
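Human aortic endothelial cells grown to ≥90% confluence, then treated with compounds and stimuli in serum-free medium with 0.2% albumin. Secreted IL-6 in collected media measured by sandwich ELISA (2 ug/ml capture, 200 ng/ml biotinylated detection antibody, streptavidin-HRP), read at 450 nm.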
(In an ELISA, binding on a coated surface is turned into a signal by an enzyme label.)

Data set [7] has as its system cells. The experiment in a line: Cytotoxicity / lactate dehydrogenase assay and visual observation of cells. Type of data set: cell-based.
[8] abbreviates: read-out: % IL6 production compare to TNF stimulation of IL6 (100%), HAEC, @ 5 uM.
Where [9] appears, read: endothelial cells, AGE stimulated.
Setting [10] is: HAEC, @ 5 uM, read-out: % IL6 production compare to TNF stimulation of IL6 (100%).
The mark [11] stands for this setting: Compds tested @ 10 uM, HAEC, IL6, read-out: % IL6 production compare to TNF stimulation of IL6 (100%).
Where [12] appears, read: Homo sapiens, Compds tested @ 10 uM.

Read-outs that look alike come from different tables or passages of the source.

The results in this text go back to patent US7169785B2, “Methods and compositions of novel triazine compounds” (Reddy US Therapeutics, Inc., priority 2001, dated 2007).

With `CCN1CCCC1CNc1nc(Nc2ccc(OC)c(Cl)c2)nc(NC2CN3CCC2CC3)n1` (stereo not shown) [Compound 148], the “Toxic (AGE-treated)” value in data set [1] is recorded as “toxic”. In data set [2] (setting [8]), the activity at 5 µM was 60%. The IC50 was 3 to 7 µM in data set [3] (read-out: Activity (note 1)) and less than 5 µM in data set [3] (read-out: Avg IC-50). Moreover, in data set [4] (human, 24 h, 10 uM), the “cell death in TNF-stimulated IL6 test” value is given as “total cell death”.
Take `COc1ccc(Nc2nc(NC3CCCCCC3)nc(N(C)C3CCNCC3)n2)cc1F` [Compound 159, N^2-Cycloheptyl-N^4-(3-fluoro-4-methoxy-phenyl)-N^6-methyl-N^6piperidin-4-yl-1,3,5-triazine-2,4,6-triamine]: in data set [1], the “Toxic (AGE-treated)” value is on record as “toxic”. Further, the IC50 in data set [3] (read-out: Activity (note 1)) lay within 3 to 7 µM; in data set [3] (read-out: Avg IC-50) it was 5.7 to 6.9 µM. In addition, the “cell death in TNF-stimulated IL6 test” value in data set [4] (human, 24 h, 5 uM) was “total cell death @ 5 and10 uM”; in data set [4] (human, 24 h, 10 uM) it was “total cell death @ 5 and10 uM”.
For the compound `COc1ccc(Nc2nc(NC3CCCCCC3)nc(NC3CCNCC3)n2)cc1Cl` [Compound 135, N^2-(3-chloro-4-methoxy-phenyl)-N^4-cycloheptyl-N^6-piperidin-4-yl-1,3,5-triazine-2,4,6-triamine], in data set [1] (setting [9]), the “Toxic (AGE-treated)” value is reported as “toxic”. Moreover, the activity at 5 µM in data set [2] (setting [10]) was 60%. Also, the results for the IC50 in data set [3] (read-out: Activity (note 1)) and in data set [3] (read-out: Avg IC-50) were 3 to 7 µM and 5.83 µM, respectively. Also, the “cell death in TNF-stimulated IL6 test” value in data set [4] (HAEC, @ 10 uM) is “total cell death”.
Consider `CCN1CCCC1CNc1nc(Nc2ccc(OC)c(F)c2)nc(N2CCC[C@H]2COC)n1` (stereo partly shown) [Compound 61], for which the “% IL6 production compare to TNF stimulation of IL6 (100%)” value in data set [2] (Compds tested @ 10 uM, HAEC, IL6) came to 2%. In addition, the “Inhibition of TNF-induced IL6 production” value in data set [2] (HAEC, class of % of control IL6 production) was “++++ (between 0 and about 25% of IL6 production compared to cells that did not receive compound (or per cent of control IL6 production))”. Besides, the “Activity, inhibition of TNF-induced heparanase secretion” value in data set [5] (@ 10 uM) is listed as 40–60% inhibition @ 10 uM. The “Relative Activity” value in data set [5] is on record as “+ (0–30% inhibition)”. Also, the “% IL6 production compare to AGE stimulation of IL6 (100%)” value in data set [6] (Compds tested @ 10 uM, IL6) was 38%. Besides, in data set [6], the IC50 came to 6.47 µM.
On to `COc1ccc(Nc2nc(Nc3ccc(OC)c(Cl)c3)nc(N(C)C3CCN(C)CC3)n2)cc1Cl` [Compound 121], for which the “Toxic (AGE-treated)” value in data set [1] is given as “toxic”. Besides, in data set [2] (setting [8]), the activity at 5 µM stood at 50%. This compound registered a some toxicity in data set [4] (HAEC, @ 5 uM) of roughly 20%. The “cell death in TNF-stimulated IL6 test” value in data set [4] (human, 24 h, 10 uM) is listed as “total cell death”. Besides, in data set [7], the “Starts blunting by” value is 1 µM, the “Toxic by toxicity assay at” value was determined as 0.75 µM and the “rounding by” value worked out at 5 µM.
The term inhibition denotes the relative decrease from the control value, in per cent. Read a low inhibition as a weak effect. On to `COc1ccc(Nc2nc(NC3CCCCCC3)nc(N3CCCC3)n2)cc1F` [Compound 82, N^2-cycloheptyl-N^4-(3-fluoro-4-methoxyphenyl)-6-(1-pyrrolidinyl)-1,3,5-triazine-2,4-diamine], for which the activity at 10 µM in data set [2] (setting [11]) came to 34%. For the same compound, in data set [5], the inhibition at 5 µM worked out at 73% and the “Relative Activity” value was “+++ (70–100% inhibition)”.
With `COc1ccc(Nc2nc(NC3CCCCCC3)nc(N3CCN(CC(=O)N4CCCC4)CC3)n2)cc1F` [Compound 94, N^2-cycloheptyl-N^4-(3-fluoro-4-methoxyphenyl)-6-{4-[2-oxo-(1-pyrrolidinyl)ethyl]-1-piperazinyl}-1,3,5-triazine-2,4-diamine], the values for the activity at 10 µM in data set [2] (setting [11]) and in data set [6] (setting [12]) were 32% and 10%, respectively. The compound also yielded an inhibition at 10 µM in data set [5] (@ 10 uM) of 40 to 60%. Besides, the “Relative Activity” value in data set [5] was “+ (0–30% inhibition)”. The IC50 in data set [6] (Homo sapiens) is 5.8 µM.
On to `COc1ccc(Nc2nc(NC3CCCCCC3)nc(NC3CCN(Cc4ccccc4)CC3)n2)cc1Cl` [Compound 134, N-(1-benzyl-piperidin-4-yl)-N′-(3-chloro-4-methoxy-phenyl)-N″-cycloheptyl-[1,3,5]-2,4,6-triamine], for which the “Toxic (AGE-treated)” value in data set [1] (setting [9]) was “toxic”. Further, the activity at 5 µM in data set [2] (setting [10]) is 55%. In addition, in data set [4] (HAEC, @ 10 uM), the “cell death in TNF-stimulated IL6 test” value is “total cell death”.
Take `CCN1CCCC1CNc1nc(Nc2ccc(OC)c(F)c2)nc(N2CCCCCC2)n1` (stereo not shown) [Compound 58, N^2-[(1-ethyl-2-pyrrolidinyl)methyl]-N^4-(3-fluoro-4-methoxyphenyl)-N^6-hexahydro-1H-azepin-1-yl-1,3,5-triazine-2,4-diamine]: the activity at 10 µM in data set [2] (setting [11]) was 1%; in data set [6] (setting [12]), 30%. This compound showed an inhibition at 10 µM in data set [5] (@ 10 uM) of 40 to 60%. The “Relative Activity” value in data set [5] was “+ (0–30% inhibition)”.
For the compound `COc1ccc(Nc2nc(NC3CCCCCC3)nc(N3CCN(C)CC3)n2)cc1F` [Compound 87, N^2-cycloheptyl-N^4-(3-fluoro-4-methoxyphenyl)-6-(4-methyl-1-piperazinyl)-1,3,5-triazine-2,4-diamine], the inhibition at 10 µM in data set [5] (@ 10 uM) fell in the range of 40 to 60%. In data set [5], the “Relative Activity” value is “+ (0–30% inhibition)”. Further, the activity at 10 µM in data set [6] (setting [12]) amounted to 5%.
For the compound `CCNc1nc(Nc2ccc(OC)c(F)c2)nc(NC2CCCCCC2)n1` [Compound 76, N^2-cycloheptyl-N^4-ethyl-N^6-(3-fluoro-4-methoxyphenyl)-1,3,5-triazine-2,4,6-triamine], the activity at 10 µM in data set [2] (setting [11]) was 18%. For the same compound, in data set [5], the inhibition at 5 µM is 50% and the “Relative Activity” value is recorded as “++ (30–40% inhibition)”.
For `CCN1CCCC1CNc1nc(Nc2ccccc2C)nc(NC2CCCCCC2)n1` (stereo not shown) [Compound 35, N^2-cycloheptyl-N^4-[(1-ethyl-2-pyrrolidinyl)methyl]-N^6-(2-methylphenyl)-1,3,5-triazine-2,4,6-triamine], the activity at 10 µM in data set [2] (setting [11]) was 34%; in data set [6] (setting [12]), 4%. The same compound showed an inhibition at 5 µM in data set [5] of 53%. For the same compound, the “Relative Activity” value in data set [5] is listed as “++ (30–40% inhibition)”.
As for `CN1CCC(N(C)c2nc(Nc3ccc(O)c(Cl)c3)nc(NC3CCCCCC3)n2)CC1` [Compound 138], in data set [1], the “Toxic (AGE-treated)” value was “toxic”. The values for the IC50 in data set [3] (read-out: Activity (note 1)) and in data set [3] (read-out: Avg IC-50) were 3 to 7 µM and 4.03 µM, respectively.
Consider `CCN(CC)c1ccc(Nc2nc(NCC3CCCN3CC)nc(NC3CCCCCC3)n2)cc1Cl` (stereo not shown) [Compound 26, N^2-[3-chloro-4-(diethylamino)phenyl]-N^4-cycloheptyl-N^6-[(1-ethyl-2-pyrrolidinyl)methyl]-1,3,5-triazine-2,4,6-triamine], for which the activity at 10 µM in data set [2] (setting [11]) was found to be 1%. In addition, the results for the IC50 in data set [3] (read-out: Activity (note 1)) and in data set [3] (read-out: Avg IC-50) were greater than 7 µM and 7.73 µM, respectively. Also, in data set [4] (TNF-stimulated HAEC, compound @ 10 uM), the cells floating was greater than 50%.
As to `CCN1CCCC1CNc1nc(Nc2ccc(OC)c(F)c2)nc(NC(C)(C)C)n1` (stereo not shown) [Compound 52, N^2-(tert-butyl)-N^4-[(1-ethyl-2-pyrrolidinyl)methyl]-N^6-(3-fluoro-4-methoxyphenyl)-1,3,5-triazine-2,4,6-triamine], the activity at 10 µM came out at 1% in data set [2] (setting [11]) and 35% in data set [6] (setting [12]). For the same compound, in data set [5] (@ 10 uM), the inhibition at 10 µM is 40 to 60%. In addition, the “Relative Activity” value in data set [5] is listed as “+ (0–30% inhibition)”.
